Results taken from publication PMC3297001, “Four Eremophilane Sesquiterpenes from the Mangrove Endophytic Fungus Xylaria sp. BL321” (2012).

Target: α-glucosidase
Experiment: enzyme assay with PNPG substrate, absorbance at […] nm; activation ([…]) at […], inhibition at higher concentration
Type: biochemical

Question: How did the IC50 turn out when `C=C(C=O)[C@@H]1C[C@@]2(C)C(=CC1=O)[C@H](OC(=O)/C=C/C=C/C(C)CC(C)CC)CC[C@@H]2C(=O)O` (stereo partly shown) [compound 4, 07H239-A] was run?
Answer: The IC50 was 6.54 µM.
